This note sets out measurements from patent publication US9371337B2, “β-lactamase inhibitors” (The Regents of the University of California, priority 2011, dated 2016).

Assay [1] concerns E. cloacae overproducing chromosomally-mediated class C β-lactamase. Description: MIC of third-generation cephalosporins alone and with compounds 4 or 9 (Table 3). It is filed as cell-based, Enterobacter cloacae. To be noted: antibiotic alone. The source says: (§1) Antimicrobial activity was investigated quantitatively to determine the minimum inhibitory concentrations (MICs) of the β-lactam/inhibitor combination necessary to inhibit the bacterial growth (Table 3). The MICs of β-lactams alone against the strains corresponded to a high level of resistance according to Clinical and Laboratory Standards Institute (CLSI) standards. (Clinical and Laboratory Standards Institute, Performance standards for antimicrobial susceptibility testing, 20th Informational Supplement, M100-S20 2010) The compounds had no measurable antibiotic activity when used alone.
(§2) Susceptibility testing was performed and interpreted following the guidelines of CLSI. (Clinical and Laboratory Standards Institute, Performance standards for antimicrobial susceptibility testing, 20th Informational Supplement, M100-S20 2010) The compounds were dissolved in 50% DMSO, and dilutions were performed using Muller-Hinton medium. An adequate final concentration was obtained to determine the minimum inhibitory concentrations (MICs). The concentration of DMSO was maintained below 5%. The inhibitors were tested for synergy with the third-generation β-lactams ceftazidime and cefotaxime against several clinical bacteria. […] Each value reported reflects the average of three independent experiments. […] A Klebsiella pneumoniae isolate produced the inducible plasmid-mediated class C enzyme DHA-1. The Friedman's test and the Wilcoxon signed rank test were used to compare MIC values. Statistical significance was established at p<0.05.

In assay [2] the test system is C. freundii overproducing chromosomally-mediated class C β-lactamase. The description is as above. The class given is cell-based, Citrobacter freundii. Particulars: antibiotic alone.
Text: as §1, §2

Assay [3] has as its system E. cloacae 135, AmpC-overproducing. The experiment in a line: MIC of third-generation cephalosporins alone and with compounds (Table 6). The class given is cell-based, Enterobacter cloacae. To be noted: antibiotic alone. On the procedure: (§3) The anti-resistance activity of inhibitors was investigated by the determination of the minimum inhibitory concentrations (MICs) of the β-lactam/inhibitor combination necessary to inhibit the growth of clinically-isolated bacteria resistant to third-generation cephalosporins via expression of class A or class C β-lactamases (Table 6).
(§4) Susceptibility testing was performed and interpreted following the guidelines of CLSI. (Clinical and Laboratory Standards Institute, Performance standards for antimicrobial susceptibility testing, 20th Informational Supplement, M100-S20 2010) The compounds were dissolved in 50% DMSO, and dilutions were performed using Muller-Hinton medium. An adequate final concentration was obtained to determine the minimum inhibitory concentrations (MICs). The concentration of DMSO was maintained below 5%. The inhibitors were tested for synergy with the third-generation β-lactams ceftazidime and cefotaxime against several clinical bacteria. The ratio of β-lactams to inhibitors was 1:4. Each value reported reflects the average of three independent experiments. […] The Friedman's test and the Wilcoxon signed rank test were used to compare MIC values. Statistical significance was established at p<0.05.
(§5) Table 6. MICs (μg/ml) of third-generation cephalosporins alone and in association with the compounds (ratio 1/4) for clinical bacteria. CTX, cefotaxime and CAZ, ceftazidime. ^1, AmpC-overproducing bacteria; ^2, CTX-M-14-producing E. coli; ^3, KPC-2-producing K. pneumoniae; ^4, OXA-48-producing K. pneumoniae; ^5, NDM-1-producing C. freundii.

Assay [4] relates to C. freundii 101, AmpC-overproducing. The description is as above. It is filed as cell-based, Citrobacter freundii. Particulars: antibiotic alone. The protocol:
as §3, §4, §5

Assay [5] has as its system C. freundii, AmpC-overproducing. The description is as above. It is filed as cell-based, Citrobacter freundii. Particulars: antibiotic alone. The protocol:
as §3, §4, §5

In assay [6] the test system is NDM-1-producing C. freundii. The description is as above. To be noted: antibiotic alone. The class given is cell-based, Citrobacter freundii. On the procedure:
as §3, §4, §5

The test system of assay [7] is AmpC-overproducing Escherichia coli strain 4. Description: Mouse model of bacteremia and sepsis, survival. It is filed as in vivo, OF1 mice. To be noted: 120 h post infection; ip at 0.5, 3.5, 6.5 h; imipenem 50 mg/kg, cefotaxime 50 mg/kg, cefotaxime:CR161 50:200 mg/kg. The protocol:
FIG. 17. Percentage of survival of mice infected with AmpC-overproducing Escherichia coli over the course of 5 days (120 h). Mice were inoculated by intraperitoneal injection with AmpC-overproducing Escherichia coli strain 4 (1±0.5 10^9 colony-forming units) and treated at 0.5, 3.5, 6.5 h after infection by intraperitoneal injection of 50 mg/kg imipenem (□, n=20), 50:200 mg/kg cefotaxime:CR161 combination (▪, n=17), 50 mg/kg cefotaxime (●, n=20) or sterile isotonic saline (◯, n=20).
Efficacy in a mouse model of infection. We had not observed such substantial reversal of bacterial resistance to β-lactams, across such a broad spectrum of clinical isolates, for previous series of boronic acid inhibitors of β-lactamase; indeed, this lack of efficacy had motivated this study. These new cell-culture MIC values inspired us to investigate the efficacy of one of these compounds in a mouse model of bacteremia and sepsis. […] Mice were treated with cefotaxime alone, cefotaxime combined with compound CR161, with sterile isotonic saline, and with imipenem as a reference treatment of systemic infections by cephalosporin-resistant enterobacteriaceae (FIG. 17); 20 mice were used in each clade. […]
OF1 mice 4-5 weeks of age and weighing 20-25 g were used in this study. […] The survival of mice in each group was monitored every 6 h for 5 days after infection. […]

Regarding `CO/N=C(\C(=O)N[C@@H]1C(=O)N2C(C(=O)O)=C(COC(C)=O)CS[C@H]12)c1csc(N)n1` [Cefotaxime], the “MIC, cephalosporin alone” value in assay [1] is 64 µg/mL; in assay [2] it was 16 µg/mL; in assay [3] it was 128 µg/mL; in assay [4], 64 µg/mL; in assay [5] it was 16 µg/mL; in assay [6] it was 512 µg/mL. The survival in assay [7] was 15%.
